Results as given in PubChem BioAssay AID308 (DTP/NCI, 2004).
Values joined by “and” are separate entries in the source; they are usually repeats but may differ in a detail not shown here. Equal values may be shown once. Inconclusive results and toxic doses are left out.

System: BDF1 mice, L1210 6-MP/6-TG resistant leukemia ip, survival T/C
Assay: NCI In Vivo Anticancer Drug Screen. Data for tumor model L1210 Leukemia resistant to 6-MP and 6-Thioguanine; NSC 755, NSC 752 (intraperitoneal) in B6D2F1 (BDF1) mice
Conditions: endpoint: mean survival time, higher = longer survival
Method: The antitumor activity of compounds was measured in mice bearing transplantable tumors. Survival or tumor size were measured and the results are expressed as the measurement made in the treated group (T) divided by the measurement made in the vehicle treated control group (C). The tumor model used in this assay is L1210 Leukemia resistant to 6-MP and 6-Thioguanine; NSC 755, NSC 752 (intraperitoneal) in B6D2F1 (BDF1) mice

[1] = dose: 25.0 mg/kg/injection, schedule: Q01DX Z (ip), vehicle: carboxymethylcellulose (CMC)
[2] = dose: 50.0 mg/kg/injection, schedule: Q01DX Z (ip), vehicle: carboxymethylcellulose (CMC)
[3] = dose: 100.0 mg/kg/injection, schedule: Q01DX Z (ip), vehicle: carboxymethylcellulose (CMC)
[4] = dose: 75.0 mg/kg/injection, schedule: Q01DX Z (ip), vehicle: carboxymethylcellulose (CMC)
[5] = dose: 150.0 mg/kg/injection, schedule: Q01DX Z (ip), vehicle: carboxymethylcellulose (CMC)
[6] = dose: 37.5 mg/kg/injection, schedule: Q01DX Z (ip), vehicle: carboxymethylcellulose (CMC)

CN(C)C(=S)N=Nc1c(O)[nH]c2ccccc12
T/C [1]: 107 % of control
T/C [2]: 105 % of control
T/C [3]: 91 % of control

CC(=O)O[C@]1(C(C)=O)CC[C@H]2[C@@H]3C[C@H](C)C4=CC(=O)C=C[C@]4(C)[C@@]3(F)[C@@H](O)C[C@@]21C
T/C (dose: 37.5 mg/kg/injection, schedule: Q01DX Z (sc), vehicle: steriod suspending solution): 101 % of control
T/C (dose: 100.0 mg/kg/injection, schedule: Q01DX Z (sc), vehicle: steriod suspending solution): 89 % of control

CCn1cnc2c(=S)nc[nH]c21
T/C [2]: 91 % of control
T/C [4]: 94 % of control
T/C [3]: 92 % of control
T/C [5]: 87 % of control

Cn1c(N)nc2nc[nH]c2c1=S
T/C (dose: 18.75 mg/kg/injection, schedule: Q01DX Z (ip), vehicle: carboxymethylcellulose (CMC)): 98 % of control
T/C [6]: 109 % of control
T/C [4]: 109 % of control

O=C(Nc1ccc(C2=NCCN2)cc1)c1ccc(C(=O)Nc2ccc(C3=NCCN3)cc2)c(Cl)c1
T/C (dose: 1.7 mg/kg/injection, schedule: Q01DX015 (ip), vehicle: carboxymethylcellulose (CMC)): 110 % of control
T/C (dose: 2.6 mg/kg/injection, schedule: Q01DX015 (ip), vehicle: carboxymethylcellulose (CMC)): 107 % of control
T/C (dose: 3.8 mg/kg/injection, schedule: Q01DX015 (ip), vehicle: carboxymethylcellulose (CMC)): 97 % of control
T/C (dose: 4.4 mg/kg/injection, schedule: Q01DX015 (ip), vehicle: carboxymethylcellulose (CMC)): 121 % of control
T/C (dose: 5.3 mg/kg/injection, schedule: Q01DX015 (ip), vehicle: carboxymethylcellulose (CMC)): 89 % of control
T/C (dose: 6.5 mg/kg/injection, schedule: Q01DX015 (ip), vehicle: carboxymethylcellulose (CMC)): 253 % of control
T/C (dose: 7.0 mg/kg/injection, schedule: Q01DX015 (ip), vehicle: carboxymethylcellulose (CMC)): 108 % of control
T/C (dose: 8.0 mg/kg/injection, schedule: Q01DX015 (ip), vehicle: carboxymethylcellulose (CMC)): 122 % of control
T/C (dose: 8.7 mg/kg/injection, schedule: Q01DX015 (ip), vehicle: carboxymethylcellulose (CMC)): 157 % of control
T/C (dose: 12.0 mg/kg/injection, schedule: Q01DX015 (ip), vehicle: carboxymethylcellulose (CMC)): 90 % of control
T/C (dose: 13.0 mg/kg/injection, schedule: Q02DX010 (ip), vehicle: carboxymethylcellulose (CMC)): 191 % of control
T/C (dose: 15.0 mg/kg/injection, schedule: Q01DX010 (ip), vehicle: carboxymethylcellulose (CMC)): 170 % of control
T/C (dose: 15.0 mg/kg/injection, schedule: Q01DX015 (ip), vehicle: carboxymethylcellulose (CMC)): 168 % of control
T/C (dose: 18.0 mg/kg/injection, schedule: Q01DX015 (ip), vehicle: carboxymethylcellulose (CMC)): 108 % of control
T/C (dose: 20.0 mg/kg/injection, schedule: Q01DX010 (ip), vehicle: carboxymethylcellulose (CMC)): 181 % of control
T/C (dose: 20.0 mg/kg/injection, schedule: Q01DX015 (ip), vehicle: carboxymethylcellulose (CMC)): 166 % of control and 187 % of control
T/C (dose: 22.5 mg/kg/injection, schedule: Q01DX015 (ip), vehicle: carboxymethylcellulose (CMC)): 154 % of control
T/C (dose: 26.0 mg/kg/injection, schedule: Q01DX015 (ip), vehicle: carboxymethylcellulose (CMC)): 214 % of control
T/C (dose: 27.0 mg/kg/injection, schedule: Q01DX015 (ip), vehicle: carboxymethylcellulose (CMC)): 90 % of control
T/C (dose: 30.0 mg/kg/injection, schedule: Q02DX010 (ip), vehicle: carboxymethylcellulose (CMC)): 223 % of control
T/C (dose: 45.0 mg/kg/injection, schedule: Q02DX010 (ip), vehicle: carboxymethylcellulose (CMC)): 188 % of control

O=C(O)CCCc1ccc(N(CCCl)CCCl)cc1
T/C (dose: 5.0 mg/kg/injection, schedule: Q01DX Z (ip), vehicle: carboxymethylcellulose (CMC)): 117 % of control
T/C (dose: 10.0 mg/kg/injection, schedule: Q01DX Z (ip), vehicle: carboxymethylcellulose (CMC)): 114 % of control
T/C (dose: 20.0 mg/kg/injection, schedule: Q01DX Z (ip), vehicle: carboxymethylcellulose (CMC)): 115 % of control
T/C (dose: 30.0 mg/kg/injection, schedule: Q01DX Z (ip), vehicle: carboxymethylcellulose (CMC)): 89 % of control

OCC1OC(n2cnc3c(=S)nc[nH]c32)C(O)C1O (stereo not drawn)
T/C [6]: 114 % of control
T/C (dose: 50.0 mg/kg/injection, schedule: Q01DX015 (ip), vehicle: carboxymethylcellulose (CMC)): 93 % of control
T/C (dose: 75.0 mg/kg/injection, schedule: Q01DX015 (ip), vehicle: carboxymethylcellulose (CMC)): 93 % of control
T/C [4]: 92 % of control
T/C (dose: 100.0 mg/kg/injection, schedule: Q01DX015 (ip), vehicle: carboxymethylcellulose (CMC)): 94 % of control
T/C (dose: 112.0 mg/kg/injection, schedule: Q01DX010 (ip), vehicle: carboxymethylcellulose (CMC)): 94 % of control
T/C (dose: 120.0 mg/kg/injection, schedule: Q01DX001 (ip), vehicle: carboxymethylcellulose (CMC)): 100 % of control
T/C (dose: 125.0 mg/kg/injection, schedule: Q01DX015 (ip), vehicle: carboxymethylcellulose (CMC)): 90 % of control
T/C (dose: 150.0 mg/kg/injection, schedule: Q01DX010 (ip), vehicle: carboxymethylcellulose (CMC)): 90 % of control
T/C (dose: 150.0 mg/kg/injection, schedule: Q01DX015 (ip), vehicle: carboxymethylcellulose (CMC)): 95 % of control
T/C [5]: 97 % of control
T/C (dose: 180.0 mg/kg/injection, schedule: Q01DX001 (ip), vehicle: alkali diluted with saline): 110 % of control
T/C (dose: 180.0 mg/kg/injection, schedule: Q01DX001 (ip), vehicle: carboxymethylcellulose (CMC)): 100 % of control
T/C (dose: 225.0 mg/kg/injection, schedule: Q01DX010 (ip), vehicle: carboxymethylcellulose (CMC)): 88 % of control
T/C (dose: 270.0 mg/kg/injection, schedule: Q01DX001 (ip), vehicle: alkali diluted with saline): 103 % of control
T/C (dose: 270.0 mg/kg/injection, schedule: Q01DX001 (ip), vehicle: carboxymethylcellulose (CMC)): 100 % of control
T/C (dose: 300.0 mg/kg/injection, schedule: Q01DX010 (ip), vehicle: carboxymethylcellulose (CMC)): 91 % of control
T/C (dose: 300.0 mg/kg/injection, schedule: Q01DX Z (ip), vehicle: carboxymethylcellulose (CMC)): 92 % of control
T/C (dose: 400.0 mg/kg/injection, schedule: Q01DX001 (ip), vehicle: alkali diluted with saline): 99 % of control
T/C (dose: 400.0 mg/kg/injection, schedule: Q01DX001 (ip), vehicle: carboxymethylcellulose (CMC)): 96 % of control
T/C (dose: 600.0 mg/kg/injection, schedule: Q01DX001 (ip), vehicle: alkali diluted with saline): 102 % of control
T/C (dose: 600.0 mg/kg/injection, schedule: Q01DX001 (ip), vehicle: carboxymethylcellulose (CMC)): 101 % of control
T/C (dose: 900.0 mg/kg/injection, schedule: Q01DX001 (ip), vehicle: alkali diluted with saline): 100 % of control

CCCC(=O)OCC1OC(n2cnc3c(=S)nc(N)[nH]c32)C(OC(=O)CCC)C1OC(=O)CCC (stereo not drawn)
T/C (dose: 6.0 mg/kg/injection, schedule: Q01DX Z (ip), vehicle: carboxymethylcellulose (CMC)): 113 % of control
T/C (dose: 12.0 mg/kg/injection, schedule: Q01DX Z (ip), vehicle: carboxymethylcellulose (CMC)): 93 % of control
T/C (dose: 24.0 mg/kg/injection, schedule: Q01DX Z (ip), vehicle: carboxymethylcellulose (CMC)): 98 % of control

O=c1cn[nH]c(=O)[nH]1
T/C (dose: 125.0 mg/kg/injection, schedule: Q01DX Z (ip), vehicle: carboxymethylcellulose (CMC)): 109 % of control
T/C (dose: 250.0 mg/kg/injection, schedule: Q01DX Z (ip), vehicle: carboxymethylcellulose (CMC)): 115 % of control
T/C (dose: 375.0 mg/kg/injection, schedule: Q01DX Z (ip), vehicle: carboxymethylcellulose (CMC)): 121 % of control
T/C (dose: 500.0 mg/kg/injection, schedule: Q01DX Z (ip), vehicle: carboxymethylcellulose (CMC)): 121 % of control

CC(CCC(C)OS(C)(=O)=O)OS(C)(=O)=O (stereo not drawn)
T/C [1]: 112 % of control
T/C [6]: 116 % of control
T/C [2]: 118 % of control
T/C [4]: 98 % of control

CSc1ncc(Br)c(Sc2nc(N)nc3nc[nH]c23)n1
T/C (dose: 3.12 mg/kg/injection, schedule: Q01DX Z (ip), vehicle: carboxymethylcellulose (CMC)): 100 % of control
T/C (dose: 6.25 mg/kg/injection, schedule: Q01DX Z (ip), vehicle: carboxymethylcellulose (CMC)): 95 % of control
T/C (dose: 12.5 mg/kg/injection, schedule: Q01DX Z (ip), vehicle: carboxymethylcellulose (CMC)): 88 % of control

Cc1c(O)ccc(=O)n1O
T/C (dose: 73.0 mg/kg/injection, schedule: Q01DX Z (ip), vehicle: other): 108 % of control
T/C (dose: 165.0 mg/kg/injection, schedule: Q01DX Z (ip), vehicle: other): 103 % of control

c1nc(SC2=NCCN2)c2[nH]cnc2n1
T/C (dose: 6.25 mg/kg/injection, schedule: Q01DX Z (ip), vehicle: saline): 98 % of control
T/C (dose: 12.5 mg/kg/injection, schedule: Q01DX Z (ip), vehicle: saline): 93 % of control
